EC50 data for 28 compounds are collected here from US10647721B2, “Bicyclic heteroaryl derivatives” (Hoffmann-La Roche Inc., priority 2016, dated 2020).

This test deals with γ-secretase. The test can be described thus: Cellular γ-secretase assay (inhibition of Aβ42 secretion, AlphaLisa). The test is classed as cell-based. The following applies: human neuroglioma H4 cells overexpressing human APP695 Swedish double mutation, 24 hr compound incubation. As to the method:
Cellular γ-Secretase Assay
Human neuroglioma H4 cells overexpressing human APP695 with the Swedish double mutation (K595N/M596L) were plated at 30,000 cells/well/100 μl in 96-well plates in IMDM media containing 10% FCS, 0.2 mg/l Hygromycin B and incubated at 37° C., 5% CO2.
3-4 hr post plating, compounds are a diluted in media and 50 μl is added as 1.5-fold concentrate to achieve the final concentration. Compound incubation is performed for 24 hr. Final doses typically range from 4 μm down to 0.0013 μm in half-log steps resulting in a eight point dose response curve.
Appropriate controls using vehicle only and reference compound were applied to this assay. The final concentration of Me2SO was 0.4%.
After incubation at 37° C., 5% CO2, the supernatant was subjected to quantification of secreted Aβ42 by the means of an AlphaLisa assay kit (Human Amyloid beta 1-42 Kit: Cat # AL203C, Perkin Elmer). 20 μl of the cell culture supernatant was transferred to an assay plate. Then 10 μl of a mixture of the AlphaLisa coupled capture antibody and the biotinylated detection antibody was added and incubated for 3 hours at room temperature while softly shaking the assay plate. After a further addition of 20 μl of the Donor beads the assay plate was incubated for 30 min at room temperature and constant shaking without exposure to direct light. The assay plate was then read on a Paradigm AlphaLisa Reader using the build-in program with excitation at 680 nm and emission at […].
The measured signals were then used to calculate IC50 values for inhibition of Aβ42 secretion by nonlinear regression fit analysis using XLfit 5.3 software (IDBS).
Compound `Cc1ncn(-c2ccc(Nc3nc4n(n3)CCCN4c3ccc(F)c(F)c3)cc2)n1` [Example 29, 4-(3,4-difluorophenyl)-N-[4-(3-methyl-1,2,4-triazol-1-yl)phenyl]-6,7-dihydro-5H-[1,2,4]triazolo[1,5-a]pyrimidin-2-amine] showed an EC50 of 56.1 nM.

In the case of `COc1cc(Nc2nc3n(n2)CCCN3c2cc(F)cc(F)c2)ccc1-n1cnc(Cl)c1` [Example 42, N-[4-(4-chloroimidazol-1-yl)-3-methoxy-phenyl]-4-(3,5-difluorophenyl)-6,7-dihydro-5H-[1,2,4]triazolo[1,5-a]pyrimidin-2-amine], the 50% effective concentration (EC50) is 7.4 nM.

Compound `Fc1ccc(N2CCCn3nc(Nc4ccc(-n5cnc(Cl)c5)c(Cl)c4)nc32)cc1F` [Example 28, N-[3-chloro-4-(4-chloroimidazol-1-yl)phenyl]-4-(3,4-difluorophenyl)-6,7-dihydro-5H-[1,2,4]triazolo[1,5-a]pyrimidin-2-amine] returned an EC50 of 137 nM.

In the case of `COc1cc(Nc2nc3n(n2)CCN3c2ccc(F)c(F)c2F)ccc1-n1cnc(Cl)c1` [Example 45, N-[4-(4-chloroimidazol-1-yl)-3-methoxy-phenyl]-4-(2,3,4-trifluorophenyl)-5,6-dihydroimidazo[1,2-b][1,2,4]triazol-2-amine], a half-maximal effect (EC50) was put at 30 nM.

For `COc1cc(Nc2nc3n(n2)CCCN3c2ccc(F)c(F)c2)ccc1-n1cnc(F)c1` [Example 40, 4-(3,4-difluorophenyl)-N-[4-(4-fluoroimidazol-1-yl)-3-methoxy-phenyl]-6,7-dihydro-5H-[1,2,4]triazolo[1,5-a]pyrimidin-2-amine], the EC50 was determined as 20.3 nM.

`Fc1ccc(N2CCCn3nc(Nc4ccc(-n5cnc(Cl)n5)c(F)c4)nc32)cc1F` [Example 21, N-[4-(3-chloro-1,2,4-triazol-1-yl)-3-fluoro-phenyl]-4-(3,4-difluorophenyl)-6,7-dihydro-5H-[1,2,4]triazolo[1,5-a]pyrimidin-2-amine]: the half-maximal effective concentration (EC50) was determined as 102 nM.

`COc1cc(Nc2nc3n(n2)CCCN3c2ccc(F)c(F)c2)ccc1-n1cnc(Cl)n1` [Example 12, N-[4-(3-chloro-1,2,4-triazol-1-yl)-3-methoxy-phenyl]-4-(3,4-difluorophenyl)-6,7-dihydro-5H-[1,2,4]triazolo[1,5-a]pyrimidin-2-amine] yielded an EC50 of 29.8 nM.

With `Fc1ccc(N2CCCn3nc(Nc4ccc(-n5cncn5)c(F)c4)nc32)cc1F` [Example 14, 4-(3,4-difluorophenyl)-N-[3-fluoro-4-(1,2,4-triazol-1-yl)phenyl]-6,7-dihydro-5H-[1,2,4]triazolo[1,5-a]pyrimidin-2-amine], it took 89.9 nM to reach a half-maximal effect (EC50).

`COc1cc(Nc2nc3n(n2)CCCN3c2ccc(F)c(F)c2F)ccc1-n1cnc(Cl)c1` [Example 17, N-[4-(4-chloroimidazol-1-yl)-3-methoxy-phenyl]-4-(2,3,4-trifluorophenyl)-6,7-dihydro-5H-[1,2,4]triazolo[1,5-a]pyrimidin-2-amine] registered an EC50 of 13 nM.

`Cc1ncc(-c2ncc(Nc3nc4n(n3)CCCN4c3ccc(F)cc3)cc2F)o1` [Example 39, N-[5-fluoro-6-(2-methyloxazol-5-yl)-3-pyridyl]-4-(4-fluorophenyl)-6,7-dihydro-5H-[1,2,4]triazolo[1,5-a]pyrimidin-2-amine]: a half-maximal response (EC50) required 17.5 nM.

Take `COc1cc(Nc2nc3n(n2)CCCN3c2ccc(F)c(F)c2)ccc1-n1cnc(C)n1` [Example 2, 4-(3,4-difluorophenyl)-N-[3-methoxy-4-(3-methyl-1,2,4-triazol-1-yl)phenyl]-6,7-dihydro-5H-[1,2,4]triazolo[1,5-a]pyrimidin-2-amine]: it took 14.2 nM to reach a half-maximal effect (EC50).

`N#Cc1cc(Nc2nc3n(n2)CCCN3c2ccc(F)cc2)ccc1-n1cnc(Cl)c1` [Example 35, 2-(4-chloroimidazol-1-yl)-5-[[4-(4-fluorophenyl)-6,7-dihydro-5H-[1,2,4]triazolo[1,5-a]pyrimidin-2-yl]amino]benzonitrile]: the EC50 was 21 nM.

Compound `COc1cc(Nc2nc3n(n2)CCCN3c2ccc(F)cc2)ccc1-n1cnc(C)n1` [Example 33, 4-(4-fluorophenyl)-N-[3-methoxy-4-(3-methyl-1,2,4-triazol-1-yl)phenyl]-6,7-dihydro-5H-[1,2,4]triazolo[1,5-a]pyrimidin-2-amine] showed an EC50 of 35.2 nM.

Consider `Cc1ncn(-c2ccc(Nc3nc4n(n3)CCCN4c3ccc(F)c(F)c3)cc2F)n1` [Example 11, 4-(3,4-difluorophenyl)-N-[3-fluoro-4-(3-methyl-1,2,4-triazol-1-yl)phenyl]-6,7-dihydro-5H-[1,2,4]triazolo[1,5-a]pyrimidin-2-amine], for which the EC50 came out at 34.5 nM.

For the compound `COc1cc(Nc2nc3n(n2)CCCN3c2cccc(F)c2)ccc1-n1cnc(Cl)c1` [Example 32, N-[4-(4-chloroimidazol-1-yl)-3-methoxy-phenyl]-4-(3-fluorophenyl)-6,7-dihydro-5H-[1,2,4]triazolo[1,5-a]pyrimidin-2-amine], the EC50 is 14.1 nM.

`Cc1cn(-c2ccc(Nc3nc4n(n3)CCCN4c3ccc(F)c(F)c3)cc2)nn1` [Example 47, 4-(3,4-difluorophenyl)-N-[4-(4-methyltriazol-1-yl)phenyl]-6,7-dihydro-5H-[1,2,4]triazolo[1,5-a]pyrimidin-2-amine] had an EC50 of 52.1 nM.

Regarding `COc1cc(Nc2nc3n(n2)CCCCN3c2ccc(F)c(F)c2)ccc1-c1cnc(C)o1` [Example 7, 4-(3,4-difluorophenyl)-N-[3-methoxy-4-(2-methyloxazol-5-yl)phenyl]-5,6,7,8-tetrahydro-[1,2,4]triazolo[1,5-a][1,3]diazepin-2-amine], it took 13.2 nM to reach a half-maximal effect (EC50).

Regarding `Cc1ncn(-c2ccc(Nc3nc4n(n3)CCCN4c3ccc(F)cc3)cc2OC(F)F)n1` [Example 37, N-[3-(difluoromethoxy)-4-(3-methyl-1,2,4-triazol-1-yl)phenyl]-4-(4-fluorophenyl)-6,7-dihydro-5H-[1,2,4]triazolo[1,5-a]pyrimidin-2-amine], the EC50 is 34.2 nM.

The compound `COc1cc(Nc2nc3n(n2)CCCN3c2cccc(F)c2)ccc1-n1cnc(C)n1` [Example 31, 4-(3-fluorophenyl)-N-[3-methoxy-4-(3-methyl-1,2,4-triazol-1-yl)phenyl]-6,7-dihydro-5H-[1,2,4]triazolo[1,5-a]pyrimidin-2-amine] gave an EC50 of 30.4 nM.

The compound `COc1cc(Nc2nc3n(n2)CCCCN3c2ccc(F)c(F)c2)ccc1-n1cnc(Cl)c1` [Example 9, N-[4-(4-chloroimidazol-1-yl)-3-methoxy-phenyl]-4-(3,4-difluorophenyl)-5,6,7,8-tetrahydro-[1,2,4]triazolo[1,5-a][1,3]diazepin-2-amine] displayed an EC50 of 22.4 nM.

Compound `Fc1ccc(N2CCCn3nc(Nc4ccc(-n5cnc(Cl)c5)c(F)c4)nc32)cc1F` [Example 18, N-[4-(4-chloroimidazol-1-yl)-3-fluoro-phenyl]-4-(3,4-difluorophenyl)-6,7-dihydro-5H-[1,2,4]triazolo[1,5-a]pyrimidin-2-amine] gave a concentration giving a half-maximal response (EC50) of 22.5 nM.

`COc1cc(Nc2nc3n(n2)CCCCN3c2ccc(F)c(F)c2)ccc1-n1cnc(C(F)(F)F)c1` [Example 10, 4-(3,4-difluorophenyl)-N-[3-methoxy-4-[4-(trifluoromethyl)imidazol-1-yl]phenyl]-5,6,7,8-tetrahydro-[1,2,4]triazolo[1,5-a][1,3]diazepin-2-amine] displayed an EC50 of 61.9 nM.

`Cc1ncn(-c2ccc(Nc3nc4n(n3)CCCN4c3ccc(F)c(F)c3)cc2C#N)n1` [Example 30, 5-[[4-(3,4-difluorophenyl)-6,7-dihydro-5H-[1,2,4]triazolo[1,5-a]pyrimidin-2-yl]amino]-2-(3-methyl-1,2,4-triazol-1-yl)benzonitrile] came in with an EC50 of 25.1 nM.

`COc1cc(Nc2nc3n(n2)CCCN3c2ccc(F)cc2)ccc1-c1cnc(C)o1` [Example 43, 4-(4-fluorophenyl)-N-[3-methoxy-4-(2-methyloxazol-5-yl)phenyl]-6,7-dihydro-5H-[1,2,4]triazolo[1,5-a]pyrimidin-2-amine] had an EC50 of 12.6 nM.

Regarding `COc1cc(Nc2nc3n(n2)CCCN3c2ccc(F)c(F)c2F)ccc1-n1cnc(C)n1` [Example 16, N-[3-methoxy-4-(3-methyl-1,2,4-triazol-1-yl)phenyl]-4-(2,3,4-trifluorophenyl)-6,7-dihydro-5H-[1,2,4]triazolo[1,5-a]pyrimidin-2-amine], the EC50 came to 32.9 nM.

Consider `COc1cc(Nc2nc3n(n2)CCCN3c2ccc(F)c(F)c2)cnc1-n1cnc(Cl)c1` [Example 5, N-[6-(4-chloroimidazol-1-yl)-5-methoxy-3-pyridyl]-4-(3,4-difluorophenyl)-6,7-dihydro-5H-[1,2,4]triazolo[1,5-a]pyrimidin-2-amine], for which the EC50 was 21.4 nM.

In the case of `COc1cc(Nc2nc3n(n2)CCCN3c2ccc(F)c(F)c2)ccc1-c1cnn(C)c1` [Example 20, 4-(3,4-difluorophenyl)-N-[3-methoxy-4-(1-methylpyrazol-4-yl)phenyl]-6,7-dihydro-5H-[1,2,4]triazolo[1,5-a]pyrimidin-2-amine], the midpoint of the response, the EC50, lay at 28.9 nM.

As to `Cc1ncc(-c2ccc(Nc3nc4n(n3)CCCN4c3ccc(F)c(F)c3)cc2)o1` [Example 22, 4-(3,4-difluorophenyl)-N-[4-(2-methyloxazol-5-yl)phenyl]-6,7-dihydro-5H-[1,2,4]triazolo[1,5-a]pyrimidin-2-amine], the response was half-maximal at 19.8 nM (EC50).
